Measured values as given in the supplement of paper PMC10307832.

What was measured:
Assay in all cases: relative viability (nuclei count vs DMSO), 5 days (fraction); higher = more cells survive
[1] = compound: C1=CC2=NC=CN=C2C=C1/C=C/3\C(=O)NC(=O)S3 + CC(C)C[C@H](NC(=O)[C@H](Cc1ccccc1)NC(=O)c1cnccn1)B(O)O [Bortezomib] (partner 0.002 µM)
Outline: (§1)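 Each reported value is a median over duplicate plates. It expresses relative viability: treated-well nuclei count divided by vehicle-well nuclei count. Lung cancer cell lines in 1536-well plates were dosed by pin tool a day after seeding, alone with one drug or with a fixed anchor-drug dose plus five library-drug doses (not always all listed) in √10 steps, and nuclei were counted after 5 days.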

[2] = compound: C1=CC2=NC=CN=C2C=C1/C=C/3\C(=O)NC(=O)S3 + CS(=O)(=O)N1CCN(Cc2cc3nc(-c4cccc5[nH]ncc45)nc(N4CCOCC4)c3s2)CC1 [Pictilisib] (partner 1 µM)
Outline: as §1

[3] = compound: C1=CC2=NC=CN=C2C=C1/C=C/3\C(=O)NC(=O)S3 + O=C(c1cc(Cc2n[nH]c(=O)c3ccccc23)ccc1F)N1CCN(C(=O)C2CC2)CC1 [Olaparib] (partner 8 µM)
Outline: as §1

[4] = compound: CCN1CCN(c2ccc(Nc3cc(N(C)C(=O)Nc4c(Cl)c(OC)cc(OC)c4Cl)ncn3)cc2)CC1 [BGJ398] + Cc1nc(Nc2ncc(C(=O)Nc3c(C)cccc3Cl)s2)cc(N2CCN(CCO)CC2)n1 [Dasatinib] (partner 0.075 µM)
Outline: as §1

| Cell Line | relative viability ([1]; first compound 0.02 µM) | relative viability ([1]; first compound 0.06325 µM) | relative viability ([1]; first compound 0.2 µM) | relative viability ([1]; first compound 0.6325 µM) | relative viability ([1]; first compound 2 µM) | relative viability ([2]; first compound 0.02 µM) | relative viability ([2]; first compound 0.06325 µM) | relative viability ([2]; first compound 0.2 µM) | relative viability ([2]; first compound 0.6325 µM) | relative viability ([2]; first compound 2 µM) | relative viability ([3]; first compound 0.02 µM) | relative viability ([3]; first compound 0.06325 µM) | relative viability ([3]; first compound 0.2 µM) | relative viability ([3]; first compound 0.6325 µM) | relative viability ([3]; first compound 2 µM) | relative viability ([4]; first compound 0.01 µM) | relative viability ([4]; first compound 0.03162 µM) | relative viability ([4]; first compound 0.1 µM) | relative viability ([4]; first compound 0.3162 µM) | relative viability ([4]; first compound 1 µM) |
| --- | --- | --- | --- | --- | --- | --- | --- | --- | --- | --- | --- | --- | --- | --- | --- | --- | --- | --- | --- | --- |
| NCI-H1651 | 0.956 | 0.637 | 0.949 | 0.96 | 0.893 | 0.547 | 0.574 | 0.598 | 0.462 | 0.472 | 0.181 | 0.154 | 0.183 | 0.178 | 0.188 | 0.48 | 0.416 | 0.482 | 0.256 | 0.333 |
| NCI-H1666 | 0.834 | 0.854 | 1.06 | 0.649 | 0.673 | 0.286 | 0.39 | 0.403 | 0.534 | 0.327 | 0.746 | 0.713 | 0.709 | 0.695 | 0.728 | 0.764 | 0.802 | 0.911 | 0.759 | 0.697 |
| NCI-H1734 | 0.761 |  | 1 | 0.919 | 0.747 | 0.426 |  | 0.509 | 0.421 | 0.274 | 0.613 |  | 0.673 | 0.562 | 0.226 | 0.443 | 0.53 | 0.514 | 0.425 | 0.468 |
| NCI-H1755 | 0.927 | 1.05 | 0.961 | 0.917 | 0.859 | 0.423 | 0.403 | 0.515 | 0.449 | 0.426 | 0.774 | 0.86 | 0.886 | 0.872 | 0.908 | 0.406 | 0.464 | 0.45 | 0.411 | 0.313 |
| NCI-H1792 | 0.863 | 0.734 | 0.928 | 0.952 | 0.688 | 0.26 | 0.16 | 0.341 | 0.214 | 0.296 | 0.319 |  | 0.347 | 0.408 | 0.315 | 0.644 | 0.783 | 0.741 | 0.497 | 0.343 |
| NCI-H1915 | 0.985 | 1.05 | 1.05 | 0.99 | 1 | 0.956 | 1.15 | 1.12 | 0.774 | 0.97 | 0.25 | 0.248 | 0.281 | 0.249 | 0.258 | 0.308 | 0.306 | 0.309 | 0.295 | 0.261 |
| NCI-H1975 | 0.355 | 0.365 | 0.401 | 0.368 | 0.36 | 0.268 | 0.298 | 0.314 | 0.246 | 0.226 | 0.728 | 0.743 | 0.805 | 0.768 | 0.794 | 0.359 | 0.449 | 0.378 | 0.34 | 0.316 |
| NCI-H1993 | 0.892 | 1.02 | 1.05 | 0.952 | 0.724 | 0.811 | 0.881 | 0.757 | 0.878 | 0.592 | 0.976 | 1.06 | 1.05 | 1.05 | 0.182 | 0.694 | 0.595 | 0.611 | 0.641 | 0.578 |
